Drawing on patent US10081634B2, “Heterocyclic compound” (Daewoong Pharmaceutical Co., Ltd., priority 2014, dated 2018), this text covers IC50 for 21 compounds.

Assay [1] addresses T1, PRS (prolyl-tRNA synthetase) (Homo sapiens, UniProt P07814).
T1 construct: the portion corresponding to PRS in cDNA of EPRS was subcloned; made in house
T1 sequence (P07814 1007-1512 limits assumed): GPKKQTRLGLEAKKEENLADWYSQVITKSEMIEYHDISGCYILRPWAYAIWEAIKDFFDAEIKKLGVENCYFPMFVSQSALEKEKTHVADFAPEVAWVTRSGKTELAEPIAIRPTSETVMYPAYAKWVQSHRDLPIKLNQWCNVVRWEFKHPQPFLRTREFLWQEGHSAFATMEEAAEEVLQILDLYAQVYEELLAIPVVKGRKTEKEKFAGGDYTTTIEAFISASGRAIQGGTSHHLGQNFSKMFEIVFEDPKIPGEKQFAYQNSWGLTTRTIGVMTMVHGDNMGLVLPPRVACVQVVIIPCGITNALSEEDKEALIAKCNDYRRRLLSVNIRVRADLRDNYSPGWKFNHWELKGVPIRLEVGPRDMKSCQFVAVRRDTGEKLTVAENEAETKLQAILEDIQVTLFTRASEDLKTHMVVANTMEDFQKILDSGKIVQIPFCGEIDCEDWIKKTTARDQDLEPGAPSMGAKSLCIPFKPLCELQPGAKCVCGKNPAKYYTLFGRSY
Briefly: In vitro PRS enzyme activity inhibition experiment ([3H]proline, liquid scintillation). Type of assay: biochemical. Put shortly: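 Purified human PRS domain subcloned from EPRS cDNA, reacted at 37 °C for 5–10 min in 20 mM KPO4 pH 7.4, 6 mM MgAc, 5 mM ATP, tRNA, 0.5 mM DTT and [3H]proline. Compounds tested at 1 μM. Aminoacylation read on TCA-treated filter paper by liquid scintillation, giving % inhibition or IC50.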

A further assay concerns NCI-H460 cells. Nature of the assay: Cancer cell growth inhibition experiment (MTT assay). Type of assay: cell-based. As to conditions: Homo sapiens; NCI-H460 lung cancer cell line; 48 hours treatment; MTT cell viability. The method, then: NCI-H460 cells, lung cancer cell lines, were cultured in 5% CO2, 37° C. incubator using a flask for 75 cm^2 tissue culture. 96-well plates were used for the evaluation. These were prepared by differently applying at concentrations in the range of 6,000 to 12,000 cells/well according to the growth rate of the cell lines. The medium containing 5% FBS were dispensed in 200 μL/well and used. The medium were cultured for 24 hours. After confirming the cell status and dispensing form of a 96-well plate under a microscope, they were used for subsequent experiments. The compounds were evaluated at concentrations of 100, 30, 10, 3, 1, 0.3, 0.03, 0.01 μM. After removing the existing medium, the compounds with various concentrations were treated in an amount of 200 μL/well. The compounds-treated plates were further cultured for 48 hours, and the cell viabilities were measured by MTT assay to calculate IC50 values.
% Inhibition and IC50 values of the respective compounds were calculated and analyzed using Sigma Plot 8.0. The case where the derived IC50 is 5 μM or less is represented by “A”, the case where the IC50 is 5 to 30 μM is represented by “B”, and the case where the IC50 is 30 μM or higher is represented by “C”.
(In general: Tetrazolium assays rely on reduction of a dye to a coloured formazan, in cell work by metabolically active cells.)

The mark [2] stands for this setting: purified PRS protein subcloned from EPRS cDNA, 37° C., 5 to 10 minutes, read-out: PRS IC50.

pIC50: −log10 of the molar value. Like-named read-outs stand apart in the source and are kept apart here.

On to `O=C(C[C@H]1NCCC[C@@H]1O)Cn1c(CO)nc2cccc(OC(F)(F)F)c21` [Example 61, 1-(2-(hydroxymethyl)-7-(trifluoromethoxy)-1H-benzo[d]imidazol-1-yl)-3-((2R,3S)-3-hydroxypiperidin-2-yl)propan-2-one], for which the figures for the pIC50 (in assay [1] (setting [2]); in the assay with NCI-H460 cells) were below 6.30 and at most 4.52, respectively.

For the compound `Cc1ccc2c(nc(CO)n2CC(=O)C[C@H]2NCCC[C@@H]2O)c1C` [Example 62, 1-(2-(hydroxymethyl)-4,5-dimethyl-1H-benzo[d]imidazol-1-yl)-3-((2R,3S)-3-hydroxypiperidin-2-yl)propan-2-one], the pIC50 (in general, the IC50 on a negative log10 scale, so that one unit is a factor of ten) in assay [1] (setting [2]) is below 6.30; in the assay on NCI-H460 cells it was at most 4.52.

`OC(C[C@H]1NCCC[C@@H]1O)Cn1cnc2ccccc21` (stereo partly drawn) [Example 69, (2R,3S)-2-(3-(1H-benzo[d]imidazol-1-yl)-2-hydroxypropyl)piperidin-3-ol]: the figures for the pIC50 (in assay [1] (setting [2]); in the assay with NCI-H460 cells) were below 6.30 and at most 4.52, respectively.

On to `OC(C[C@H]1NCCC[C@@H]1O)Cn1cnc2cc(Cl)c(Cl)cc21` (stereo partly drawn) [Example 70, (2R,3S)-2-(3-(5,6-dichloro-1H-benzo[d]imidazol-1-yl)-2-hydroxypropyl)piperidin-3-ol], for which the pIC50 in assay [1] (setting [2]) was 6.30 to 7.00; in the assay with NCI-H460 cells, 4.52 to 5.30.

Take `OC(C[C@H]1NCCC[C@@H]1O)Cn1cnc2c(Cl)c(Br)ccc21` (stereo partly drawn) [Example 71, (2R,3S)-2-(3-(5-bromo-4-chloro-1H-benzo[d]imidazol-1-yl)-2-hydroxypropyl)piperidin-3-ol]: the pIC50 in assay [1] (setting [2]) was above 7.00; in the assay on NCI-H460 cells, 4.52 to 5.30.

As for `Cc1c(Br)cnc2c1ncn2CC(O)C[C@H]1NCCC[C@@H]1O` (stereo partly drawn) [Example 78, (2R,3S)-2-(3-(6-bromo-7-methyl-3H-imidazo[4,5-b]pyridin-3-yl)-2-hydroxypropyl)piperidin-3-ol], the negative logarithm of the IC50 (pIC50) is above 7.00 in assay [1] (setting [2]) and at most 4.52 in the assay with NCI-H460 cells.

Turning to `CC(O)(C[C@H]1NCCC[C@@H]1O)Cn1cnc2ccccc21` (stereo partly drawn) [Example 80, (2R,3S)-2-(3-(1H-benzo[d]imidazol-1-yl)-2-hydroxy-2-methylpropyl)piperidin-3-ol], the pIC50 in assay [1] (setting [2]) is below 6.30; with NCI-H460 cells, at most 4.52.

On to `O[C@H]1CCCN[C@@H]1CC(F)Cn1cnc2cc(Cl)c(Cl)cc21` (stereo partly drawn) [Example 81, (2R,3S)-2-(3-(5,6-dichloro-1H-benzo[d]imidazol-1-yl)-2-fluoropropyl)piperidin-3-ol], for which the pIC50 in assay [1] (setting [2]) was below 6.30; with NCI-H460 cells, at most 4.52.

Regarding `O[C@H]1CCCN[C@@H]1CC(F)(F)Cn1cnc2cc(Cl)c(Cl)cc21` [Example 82, (2R,3S)-2-(3-(5,6-dichloro-1H-benzo[d]imidazol-1-yl)-2,2-difluoropropyl)piperidin-3-ol], the pIC50 in assay [1] (setting [2]) is below 6.30; with NCI-H460 cells, at most 4.52.

Turning to `COC(C[C@H]1NCCC[C@@H]1O)Cn1cnc2cc(Cl)c(Cl)cc21` (stereo partly drawn) [Example 83, (2R,3S)-2-(3-(5,6-dichloro-1H-benzo[d]imidazol-1-yl)-2-methoxypropyl)piperidin-3-ol], the pIC50 is below 6.30 in assay [1] (setting [2]) and at most 4.52 in the assay with NCI-H460 cells.

For the compound `CC(O)(C[C@H]1NCCC[C@@H]1O)Cn1cnc2cc(Cl)c(Cl)cc21` (stereo partly drawn) [Example 84, (2R,3S)-2-(3-(5,6-dichloro-1H-benzo[d]imidazol-1-yl)-2-hydroxy-2-methylpropyl)piperidin-3-ol], the pIC50 in assay [1] (setting [2]) is below 6.30; in the assay with NCI-H460 cells it was at most 4.52.

In the case of `O=C(C[C@H]1NCCC[C@@H]1O)Cn1c(CO)nc2cc(Cl)c(Cl)cc21` [Example 87, 1-(5,6-dichloro-2-(hydroxymethyl)-1H-benzo[d]imidazol-1-yl)-3-((2R,3S)-3-hydroxypiperidin-2-yl)propan-2-one], the negative logarithm of the IC50 (pIC50) was above 7.00 in assay [1] (setting [2]) and at least 5.30 in the assay with NCI-H460 cells.

Regarding `OCc1nc2cc(Cl)c(Cl)cc2n1CC(O)C[C@H]1NCCC[C@@H]1O` (stereo partly drawn) [Example 88, (2R,3S)-2-(3-(5,6-dichloro-2-(hydroxymethyl)-1H-benzo[d]imidazol-1-yl)-2-hydroxypropyl)piperidin-3-ol], the pIC50 in assay [1] (setting [2]) was 6.30 to 7.00; with NCI-H460 cells it was at most 4.52.

Consider `Cc1c(Br)ccc2c1ncn2CC(O)C[C@H]1NCCC[C@@H]1O` (stereo partly drawn) [Example 89, (2R,3S)-2-(3-(5-bromo-4-methyl-1H-benzo[d]imidazol-1-yl)-2-hydroxypropyl)piperidin-3-ol], for which the pIC50 was above 7.00 in assay [1] (setting [2]) and at most 4.52 in the assay with NCI-H460 cells.

On to `O=C(C[C@@H]1CCCN1)Cn1cnc2cc(Cl)c(Cl)cc21` [Example 90, (S)-1-(5,6-dichloro-1H-benzo[d]imidazol-1-yl)-3-(pyrrolidin-2-yl)propan-2-one], for which the pIC50 in assay [1] (setting [2]) is below 6.30; with NCI-H460 cells, at most 4.52.

`O=C(C[C@H]1NCCC[C@@H]1O)Cn1ccc2ccc(Br)nc21` [Example 92, 1-(6-bromo-1H-pyrrolo[2,3-b]pyridin-1-yl)-3-((2R,3S)-3-hydroxypiperidin-2-yl)propan-2-one]: the pIC50 in assay [1] (setting [2]) was below 6.30; in the assay on NCI-H460 cells, at most 4.52.

With `O=C(C[C@H]1NCCC[C@@H]1O)Cn1ccc2ccnc(Cl)c21` [Example 93, 1-(7-chloro-1H-pyrrolo[2,3-c]pyridin-1-yl)-3-((2R,3S)-3-hydroxypiperidin-2-yl)propan-2-one], the results for the pIC50 (in assay [1] (setting [2]); in the assay with NCI-H460 cells) were 6.30 to 7.00 and at most 4.52, respectively.

In the case of `O=C(C[C@H]1NCCC[C@@H]1O)Cn1ccc2ncc(Br)cc21` [Example 94, 1-(6-bromo-1H-pyrrolo[3,2-b]pyridin-1-yl)-3-((2R,3S)-3-hydroxypiperidin-2-yl)propan-2-one], the pIC50 in assay [1] (setting [2]) was below 6.30; with NCI-H460 cells, at most 4.52.

For `Cc1c(C#N)cnc2c1ccn2CC(=O)C[C@H]1NCCC[C@@H]1O` [Example 95, 1-(3-((2R,3S)-3-hydroxypiperidin-2-yl)-2-oxopropyl)-4-methyl-1H-pyrrolo[2,3-b]pyridin-5-carbonitrile], the pIC50 was below 6.30 in assay [1] and at most 4.52 in the assay with NCI-H460 cells.

With `O=C(C[C@H]1NCCC[C@@H]1O)Cn1nnc2cc(Cl)ccc21` [Example 99, 1-(5-chloro-1H-benzo[d][1,2,3]triazol-1-yl)-3-((2R,3S)-3-hydroxypiperidin-2-yl)propan-2-one], the pIC50 was 6.30 to 7.00 in assay [1] (setting [2]) and at most 4.52 with NCI-H460 cells.

With `O=C(C[C@H]1NCCC[C@@H]1O)Cn1nnc2ccc(Cl)cc21` [Example 100, 1-(6-chloro-1H-benzo[d][1,2,3]triazol-1-yl)-3-((2R,3S)-3-hydroxypiperidin-2-yl)propan-2-one], the pIC50 in assay [1] (setting [2]) was below 6.30; in the assay on NCI-H460 cells it was at most 4.52.
